Measurements from patent publication US20240279275A1, “HEXAPEPTIDE DERIVATIVE AND COSMETIC COMPOSITION OR PHARMACEUTICAL COMPOSITION AND USE THEREOF” (SHENZHEN WINKEY TECHNOLOGY CO., LTD, priority 2021, published 2024).
Residues, ends and D or L forms follow the SMILES beside them. *: point of attachment. Caffeoyl = O=C(/C=C/c1ccc(O)c(O)c1)*; Galloyl = O=C(c1cc(O)c(O)c(O)c1)*

Experiments:
[1] = cited from earlier work
NIH3T3 cells [2] = assay: ROS staining assay, UV photoaging model; assay type: cell-based, Mouse; details: after UV irradiation, 24 h, ROS fluorescent probe
Source text: (§1) Mouse skin fibroblasts (NIH3T3) were purchased from the Shanghai Cell Bank of China Center for Type Culture Collection under the Chinese Academy of Sciences.
(§2) • CA, at a test concentration of 1 ppm; • GA, at a test concentration of 10 ppm; • the reference peptide, at a test concentration of 1 ppm and 10 ppm, respectively; • the peptide (2), at a test concentration of 1 ppm; • the peptide (4), at a test concentration of 10 ppm.
Another indication of aging is an increase in intracellular oxidative stress levels, that is, an increase in ROS, and aging can be slowed down by alleviating oxidative stress. The purpose of this experiment is to test the impact of the peptide derivatives of the present invention on oxidative stress levels using ROS staining assay, thereby evaluating the antioxidant effect.
(§3) The frozen NIH3T3 cells were cultured and passaged at a ratio of 1:2 to about the 5th generation, and the cells in better growth were selected as experiment subjects.
(§4) The cells were inoculated into a 96-well plate at 10,000 cells/well, and when the cells were approximately 80% full, a UV photoaging model was established. In the control group, a PBS solution was added, supplemented with the culture medium to 200 μL, while no UV irradiation was performed; For the UV group and the drug group, a proper amount of PBS was added to wash the culture repeatedly until colorless, followed by adding 50 μL PBS and irradiating under an 80 J/cm^3 UV light. The distance between the light source and the culture bottle was 15 cm. After irradiation, the PBS was removed. In the UV group, a PBS solution and the culture medium were added to 200 μL; in the drug group, the culture medium and the drug diluted in a certain ratio were added to 200 μL. The control group, the UV group, and the drug group were further incubated in a 37° C., 5% CO2 incubator for 24 h.
The culture medium was removed. Each group was stained according to the ROS probe instructions for 20 min and was observed under a fluorescence microscope.

NIH3T3 cells [3] = assay: β-galactosidase staining assay, UV photoaging model; assay type: cell-based, Mouse; details: after UV irradiation, 24 h
Source text: as §1
as §2, with “1 ppm, 10 ppm, and 100 ppm, respectively;” for “1 ppm;”, “1 ppm, 10 ppm,” for “1 ppm”, “and 100” for “and 10”, “peptide (4)” for “peptide (4),”, “ppm. 3.” for “ppm.”
The purpose of this experiment is to test the impact of the peptide derivatives of the present invention on cell senescence using a β-galactosidase staining assay to evaluate the anti-photoaging capability.
as §3
as §4, with “h. The culture medium was removed. 100 μL 4% paraformaldehyde was added to each well and fixed at room temperature for 15 min, followed by washing with PBS three times, adding a β-galactosidase staining agent (X-gal 0.01%, potassium ferricyanide 0.16%, ferrocyanide potassium 0.02%) 50 μL/well, sealing with plastic wrap, and staining in a 37° C. incubator in the dark for 12 h. The staining solution was removed. Each group was washed with PBS three times, and photographed under a light microscope. The number of cells in the field of view and the number of stained cells were counted.” for “h.”
UV irradiation can cause cell senescence, and the cytoplasm of senescent cells are stained blue-green by the β-galactosidase agent (shown as the dark part in the black and white images). This experiment evaluates the anti-photoaging capability of the peptide derivatives of the present invention through staining morphology images and senescent cell staining statistics.

NIH3T3 cells [4] = assay: Cell proliferation assay (MTT); assay type: cell-based, Mouse; details: 72 h
Source text: as §1
• CA, at a test concentration of 1 ppm, 10 ppm, 100 ppm, and 500 ppm, respectively; • GA, at a test concentration of 1 ppm, 10 ppm, 100 ppm, and 500 ppm, respectively; • the peptide H-Gly-Pro-Gln-Gly-Pro-Gln-NH2 (hereinafter referred to as the reference peptide), at a test concentration of 1 ppm, 10 ppm, 100 ppm, and 500 ppm, respectively; • the peptide (2) CA-Gly-Pro-Gln-Gly-Pro-Gln-NH2, at a test concentration of 1 ppm, 10 ppm, 100 ppm, and 500 ppm, respectively; • the peptide (4) GA-Gly-Pro-Gln-Gly-Pro-Gln-NH2, at a test concentration of 1 ppm, 10 ppm, 100 ppm, and 500 ppm, respectively.
The purpose of this experiment is to evaluate cell viability 72 h after administration and determine the effect of the peptide derivatives of the present invention on cell proliferation by using NIH3T3 cells as the experiment subject.
NIH3T3 cells in good exponential growth phase were taken. A 0.25% trypsin digestion solution was added so that digestion allowed the adherent cells to fall off, counting (1−4)×10^5 cells/mL, which were prepared into a cell suspension.
The cell suspension was inoculated on a 96-well plate with 200 μL/well, and cultured in a constant-temperature CO2 incubator for 24 h.
After changing the medium, the cell suspension was added to drug groups and the control group, respectively, each of which was placed in 20 μL/well and incubated in a 37° C., 5% CO2 incubator for 72 h.
Then 20 μL 5 mg/ml MTT was added to each well and the incubation was continued for 4 h in the 37° C., 5% CO2 incubator. The original solution was removed and 150 μL/well DMSO was added. The plate was placed on a plate shaker for shaking for 5 min. A microplate reader was used to determine the OD value of each well at a wavelength of 570 nm, and calculate the cell viability.
Cell viability=[OD(administration well)−OD(zero adjustment well)]/[OD(control well)−OD(zero adjustment well)]×100%

[5] = 500 ppm, compared with the control group
[6] = test concentrations 1 ppm to 100 ppm

| Compound | solubility in cold water [1] | ROS level per unit cells (NIH3T3 cells [2]; 10 ppm) | proportion of senescent cells (β-galactosidase staining) (NIH3T3 cells [3]; 10 ppm) | effect on NIH3T3 cell viability / toxicity (NIH3T3 cells [4]; 100 ppm, compared with the control group) | effect on NIH3T3 cell viability / toxicity (NIH3T3 cells [4]; [5]) | toxic effect on NIH3T3 cells (NIH3T3 cells [4]; high concentrations) | solubility in water ([1]; water) | ROS level per unit cells (NIH3T3 cells [2]; 1 ppm) | proportion of senescent cells (β-galactosidase staining) (NIH3T3 cells [3]; [6]) | effect on NIH3T3 cell viability (NIH3T3 cells [4]; 10 ppm to 500 ppm, compared with the control group) |
| --- | --- | --- | --- | --- | --- | --- | --- | --- | --- | --- |
| O=C(O)c1cc(O)c(O)c(O)c1 [GA, 3,4,5-trihydroxybenzoic acid] | insoluble | had a certain effect in reducing ROS | unable to reduce the proportion of senescent cells | significant toxicity | significant toxicity | – | – | – | – | – |
| NC(=O)CCC(NC(=O)C1CCCN1C(=O)CNC(=O)C(CCC(N)=O)NC(=O)C1CCCN1C(=O)CNC(=O)c1cc(O)c(O)c(O)c1)C(N)=O (stereo not drawn) [peptide (4), GA-Gly-Pro-Gln-Gly-Pro-Gln-NH2] (Galloyl-GPQGPQ-NH2; configuration not given here) | – | more significantly reduced the expression of ROS per unit cells | reduced the proportion of senescent cells | – | – | did not have a toxic effect | – | – | – | – |
| H-Gly-Pro-Gln-Gly-Pro-Gln-NH2 (H-GPQGPQ-NH2) [reference peptide, collagen peptide of EP1406589B1] | – | had a certain effect in reducing ROS | – | – | – | – | good solubility in water | failed to reduce the ROS level per unit cells | unable to reduce the proportion of senescent cells | improved cell viability |
| NC(=O)CCC(NC(=O)C1CCCN1C(=O)CNC(=O)C(CCC(N)=O)NC(=O)C1CCCN1C(=O)CNC(=O)/C=C/c1ccc(O)c(O)c1)C(N)=O (stereo not drawn) [peptide (2), CA-Gly-Pro-Gln-Gly-Pro-Gln-NH2] (Caffeoyl-GPQGPQ-NH2; configuration not given here) | – | – | – | – | significantly improve cell viability | – | – | significantly reduced the expression of ROS per unit cells | significantly reduced the proportion of senescent cells | – |
| O=C(O)C=Cc1ccc(O)c(O)c1 [CA, 3,4-dihydroxycinnamic acid] | slightly soluble | – | – | – | significant toxicity | – | – | reduced the ROS level per unit cells to a certain extent | unable to reduce the proportion of senescent cells | – |
